Results published in patent US20160271149A1, “[…] COMPOUNDS THAT […] PROTEIN ARGININE […] ACTIVITY FOR REDUCING TUMOR CELL PROLIFERATION” (Epinova Therapeutics Corp., priority 2015, published 2016).
Values joined by “and” are separate entries in the source; they are usually repeats but may differ in a detail not shown here. Identical values can stand only once. Counter-ions that a name gives are not always drawn.

What was measured:
[1] = test system: PRMTs; experiment: Screen against protein arginine methyltransferases, summary statement
Procedure: (§1) A 10 mM DMSO stock solution of each test compound was prepared.
(§2) Compounds were tested in a single-dose mode, in duplicate at the following concentrations.
(§3) Reactions were carried out at 1 μM SAM. The no inhibitor control was set as 100% activity).

[2] = target: PRMT5 (Homo sapiens, UniProt O14744); experiment: Methyltransferase activity screen, PRMT5, substrate Histone H2A; details: for % Enzyme Activity (relative to DMSO controls): PRMT5, substrate Histone H2A, single-dose mode, duplicate (Data 1, Data 2), 1 μM SAM, 100 μM; for inhibition of PRMT5: at a concentration of 100 μM
Procedure: as §1, §2, §3

[3] = target: PRMT1 (Homo sapiens, UniProt Q99873); experiment: Methyltransferase activity screen, PRMT1, substrate Histone H4; details: single-dose mode, duplicate (Data 1, Data 2), 1 μM SAM, 100 μM
Procedure: as §1, §2, §3

[4] = target: PRMT5/MEP50 (Homo sapiens, UniProt O14744); experiment: Methyltransferase activity screen and profiling, PRMT5/MEP50, substrate Histone H2A; details: for % Enzyme Activity (relative to DMSO controls): PRMT5/MEP50, substrate Histone H2A, single-dose mode, duplicate (Data 1, Data 2), 1 μM SAM, 100 μM; for % Activity / Raw data: PRMT5/MEP50 profiling; for HILLSLOPE: Table 4, PRMT5/MEP50 dose-response curve fit
Procedure: as §1, §2, §3

[5] = test system: LXR and FXR; details: cited from earlier work
[6] = target: PRMT6 (Homo sapiens, UniProt Q96LA8); experiment: Methyltransferase activity screen, PRMT6, substrate Histone H3; details: for % Enzyme Activity (relative to DMSO controls): PRMT6, substrate Histone H3, single-dose mode, duplicate (Data 1, Data 2), 1 μM SAM, 100 μM
Procedure: as §1, §2, §3

[7] = target: T1, LXRα (Homo sapiens, UniProt Q13133); details: human isoform; cited from earlier work
T1 sequence (Q13133 1-447): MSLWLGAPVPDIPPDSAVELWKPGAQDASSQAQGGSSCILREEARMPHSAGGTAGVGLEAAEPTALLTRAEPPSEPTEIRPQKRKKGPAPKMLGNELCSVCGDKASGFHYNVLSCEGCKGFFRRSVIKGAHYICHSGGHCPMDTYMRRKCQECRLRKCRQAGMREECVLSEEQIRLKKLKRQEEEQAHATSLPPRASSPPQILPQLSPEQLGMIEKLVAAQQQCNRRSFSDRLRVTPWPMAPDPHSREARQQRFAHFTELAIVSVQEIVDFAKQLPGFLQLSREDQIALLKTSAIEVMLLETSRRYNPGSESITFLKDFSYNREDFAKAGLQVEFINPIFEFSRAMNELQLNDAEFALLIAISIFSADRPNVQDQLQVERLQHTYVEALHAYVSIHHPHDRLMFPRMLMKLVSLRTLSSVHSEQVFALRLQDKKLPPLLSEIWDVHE

[8] = target: T2, human PPARα (Homo sapiens, UniProt Q07869); details: at 1 μM; COS-1 cells, human PPARα and RXRα; cited from earlier work
T2 sequence (Q07869 1-468): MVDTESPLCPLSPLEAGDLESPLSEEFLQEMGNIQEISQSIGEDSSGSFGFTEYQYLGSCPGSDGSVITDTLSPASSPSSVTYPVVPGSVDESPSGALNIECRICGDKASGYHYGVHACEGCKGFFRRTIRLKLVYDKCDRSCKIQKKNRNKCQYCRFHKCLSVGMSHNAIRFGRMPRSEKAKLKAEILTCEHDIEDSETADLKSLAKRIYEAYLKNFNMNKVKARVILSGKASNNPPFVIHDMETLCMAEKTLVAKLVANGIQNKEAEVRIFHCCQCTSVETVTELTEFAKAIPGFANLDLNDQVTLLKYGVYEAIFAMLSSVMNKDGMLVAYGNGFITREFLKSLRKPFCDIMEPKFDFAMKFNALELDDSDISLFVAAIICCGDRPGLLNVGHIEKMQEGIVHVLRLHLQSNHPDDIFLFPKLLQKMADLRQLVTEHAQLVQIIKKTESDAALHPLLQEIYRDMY
T2 sequence (P19793 1-462 partner): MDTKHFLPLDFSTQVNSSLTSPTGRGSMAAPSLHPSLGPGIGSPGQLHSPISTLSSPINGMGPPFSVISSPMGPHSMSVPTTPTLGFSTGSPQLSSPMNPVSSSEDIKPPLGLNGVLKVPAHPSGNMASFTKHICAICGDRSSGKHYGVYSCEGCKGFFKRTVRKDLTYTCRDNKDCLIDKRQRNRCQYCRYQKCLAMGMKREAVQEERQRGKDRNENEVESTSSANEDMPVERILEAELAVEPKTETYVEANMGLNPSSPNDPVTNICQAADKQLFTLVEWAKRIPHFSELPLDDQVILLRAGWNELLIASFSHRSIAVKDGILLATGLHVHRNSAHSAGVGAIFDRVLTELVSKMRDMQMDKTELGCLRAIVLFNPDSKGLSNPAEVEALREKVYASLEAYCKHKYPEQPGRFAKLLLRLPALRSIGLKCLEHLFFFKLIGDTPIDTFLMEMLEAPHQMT

[9] = target: T3, TGR5 (Homo sapiens, UniProt Q8TDU6); details: cited from earlier work
T3 sequence (Q8TDU6 1-330): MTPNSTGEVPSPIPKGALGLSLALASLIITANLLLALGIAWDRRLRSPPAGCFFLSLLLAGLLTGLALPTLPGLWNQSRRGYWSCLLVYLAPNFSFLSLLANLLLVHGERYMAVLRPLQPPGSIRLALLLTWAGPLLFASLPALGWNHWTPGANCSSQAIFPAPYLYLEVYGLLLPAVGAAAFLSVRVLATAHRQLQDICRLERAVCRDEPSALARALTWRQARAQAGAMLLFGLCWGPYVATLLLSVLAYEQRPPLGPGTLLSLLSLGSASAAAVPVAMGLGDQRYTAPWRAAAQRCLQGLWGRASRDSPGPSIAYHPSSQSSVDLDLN

Sequence of PRMT5/MEP50 (O14744 whole entry): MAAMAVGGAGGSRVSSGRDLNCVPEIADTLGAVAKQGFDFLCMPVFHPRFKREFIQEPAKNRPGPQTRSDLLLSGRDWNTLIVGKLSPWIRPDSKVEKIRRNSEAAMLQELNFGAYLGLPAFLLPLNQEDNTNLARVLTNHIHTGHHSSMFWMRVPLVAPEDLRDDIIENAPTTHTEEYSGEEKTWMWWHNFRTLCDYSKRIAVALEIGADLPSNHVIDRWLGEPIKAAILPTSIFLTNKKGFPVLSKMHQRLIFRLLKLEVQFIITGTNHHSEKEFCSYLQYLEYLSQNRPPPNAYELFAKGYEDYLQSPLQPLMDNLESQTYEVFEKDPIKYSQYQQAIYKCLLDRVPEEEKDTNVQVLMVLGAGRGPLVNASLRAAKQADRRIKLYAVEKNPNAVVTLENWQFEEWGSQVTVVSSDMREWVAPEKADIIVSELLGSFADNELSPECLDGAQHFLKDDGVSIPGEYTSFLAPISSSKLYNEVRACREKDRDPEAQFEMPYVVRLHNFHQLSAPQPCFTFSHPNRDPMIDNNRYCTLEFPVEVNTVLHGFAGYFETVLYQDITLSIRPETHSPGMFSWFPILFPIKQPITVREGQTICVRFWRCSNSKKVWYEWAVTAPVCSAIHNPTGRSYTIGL
Sequence of PRMT5/MEP50 (Q9BQA1 whole entry partner): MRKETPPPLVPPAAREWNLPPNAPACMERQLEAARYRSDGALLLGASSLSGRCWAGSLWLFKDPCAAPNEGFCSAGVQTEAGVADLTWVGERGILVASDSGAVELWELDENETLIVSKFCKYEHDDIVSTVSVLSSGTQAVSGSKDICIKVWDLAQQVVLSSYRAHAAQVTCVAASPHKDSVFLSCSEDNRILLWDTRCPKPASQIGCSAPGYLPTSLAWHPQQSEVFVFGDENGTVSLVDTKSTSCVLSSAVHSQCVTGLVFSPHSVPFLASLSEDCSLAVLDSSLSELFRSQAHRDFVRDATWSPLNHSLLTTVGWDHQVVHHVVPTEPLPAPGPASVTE
Sequence of PRMT5 (O14744 whole entry): as the sequence (O14744 whole entry) above
Sequence of PRMT1 (Q99873 whole entry): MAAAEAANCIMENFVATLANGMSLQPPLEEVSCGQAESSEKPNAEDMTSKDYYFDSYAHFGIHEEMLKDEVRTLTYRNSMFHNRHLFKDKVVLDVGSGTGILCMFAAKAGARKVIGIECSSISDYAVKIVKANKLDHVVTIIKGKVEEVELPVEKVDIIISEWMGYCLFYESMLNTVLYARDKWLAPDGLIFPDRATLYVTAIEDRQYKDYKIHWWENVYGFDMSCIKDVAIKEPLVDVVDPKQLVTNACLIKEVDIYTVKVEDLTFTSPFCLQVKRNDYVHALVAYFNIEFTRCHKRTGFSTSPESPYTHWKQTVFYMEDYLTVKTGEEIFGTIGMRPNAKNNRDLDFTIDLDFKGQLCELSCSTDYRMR
Sequence of PRMT6 (Q96LA8 whole entry, canonical isoform): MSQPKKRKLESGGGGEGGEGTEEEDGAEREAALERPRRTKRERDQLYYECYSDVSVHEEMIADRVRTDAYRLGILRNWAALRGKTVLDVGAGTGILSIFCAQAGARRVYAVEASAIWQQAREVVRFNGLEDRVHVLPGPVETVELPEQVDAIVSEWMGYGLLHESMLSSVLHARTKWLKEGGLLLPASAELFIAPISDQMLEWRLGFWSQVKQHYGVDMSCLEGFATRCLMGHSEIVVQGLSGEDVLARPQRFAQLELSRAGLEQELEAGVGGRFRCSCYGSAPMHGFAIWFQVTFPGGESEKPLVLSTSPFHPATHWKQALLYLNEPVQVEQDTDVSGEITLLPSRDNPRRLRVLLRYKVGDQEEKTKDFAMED

% Activity ([4]; Conc. 1.00E−04 M)	Raw data ([4]; Conc. 1.00E−04 M)	% Activity ([4]; Conc. 1.11E−05 M)	Raw data ([4]; Conc. 1.11E−05 M)	% Activity ([4]; Conc. 1.23E−06 M)	Raw data ([4]; Conc. 1.23E−06 M)	% Activity ([4]; Conc. 1.37E−07 M)	Raw data ([4]; Conc. 1.37E−07 M)	% Activity ([4]; Conc. 1.52E−08 M)	Raw data ([4]; Conc. 1.52E−08 M)	% Activity ([4]; Conc. 3.33E−05 M)	Raw data ([4]; Conc. 3.33E−05 M)	% Activity ([4]; Conc. 3.70E−06 M)	Raw data ([4]; Conc. 3.70E−06 M)	% Activity ([4]; Conc. 4.12E−07 M)	Raw data ([4]; Conc. 4.12E−07 M)	% Activity ([4]; Conc. 4.57E−08 M)	Raw data ([4]; Conc. 4.57E−08 M)	% Activity ([4]; Conc. 5.08E−09 M)	Raw data ([4]; Conc. 5.08E−09 M)	SMILES	further results
																				C[C@H](CCC(=O)O)[C@H]1CC[C@H]2[C@@H]3[C@H](O)C[C@@H]4C[C@H](O)CC[C@]4(C)[C@H]3CC[C@]12C [Chenodeoxycholic acid, 3α, 7α-dihydroxy-5β-cholan-24-oic acid]	direct inhibitory effect on PRMTs [1]: no direct inhibitory effect
1.47%	6431	124.34%	544281	105.86%	463366	103.73%	454053	95.29%	417100	137.65%	602561	112.86%	494019	103.66%	453763	99.34%	434862	98.94%	433085	Cl.O=C(O)Cc1cccc(OCCCN(Cc2cccc(C(F)(F)F)c2Cl)CC(c2ccccc2)c2ccccc2)c1 [GW 3965, 3-[3-[[[2-chloro-3-(trifluoromethyl)phenyl]methyl](2,2-diphenylethyl)amino]propoxy]-benzeneacetic acid, monohydrochloride]	% Enzyme Activity (relative to DMSO controls) ([2]; monohydrochloride): 90.29% and 97.35%; % Enzyme Activity (relative to DMSO controls) ([3]; monohydrochloride): 6.93% and 4.55%; IC50 [4]: 84.2 µM; % Enzyme Activity (relative to DMSO controls) ([4]; monohydrochloride): 1.54% and 1.23%; HILLSLOPE [4]: −24.99; affinity for LXR and FXR [5]: nanomolar affinity; % Enzyme Activity (relative to DMSO controls) ([6]; monohydrochloride): 83.29% and 103.66%; EC50 [7]: 0.29 µM
5.70%	24954	117.75%	515444	105.80%	463109	99.86%	437127	96.95%	424387	120.51%	527528	103.51%	453113	99.48%	435450	97.26%	425743	94.60%	414110	CC(C)c1onc(-c2c(Cl)cccc2Cl)c1COc1ccc(C=Cc2cccc(C(=O)O)c2)c(Cl)c1 [GW 4064, 3-[2-[2-chloro-4-[[3-(2,6-dichlorophenyl)-5-(1-methylethyl)-4-isoxazolyl]methoxy]phenyl]ethenyl]-benzoic acid]	IC50 [4]: 79.2 µM; HILLSLOPE [4]: −12.23; affinity for LXR and FXR [5]: nanomolar affinity
																				CC[C@H]1[C@@H](O)[C@@H]2[C@H](CC[C@]3(C)[C@@H]([C@H](C)CCC(=O)O)CC[C@@H]23)[C@@]2(C)CC[C@@H](O)C[C@@H]12 [INT-747, 6α-Ethyl-chenodeoxycholic acid]	% Enzyme Activity (relative to DMSO controls) [2]: 106.35% and 105.51%; % Enzyme Activity (relative to DMSO controls) [3]: 112.72% and 115.42%; % Enzyme Activity (relative to DMSO controls) [4]: 95.73% and 93.91%; % Enzyme Activity (relative to DMSO controls) [6]: 312.24% and 288.93%
																				CN(C)C(=N)N=C(N)N [Metformin, N, N-dimethyl-imidodicarbonimidic diamide, monohydrochloride]	% Enzyme Activity (relative to DMSO controls) ([2]; monohydrochloride): 98.74% and 84.85%; % Enzyme Activity (relative to DMSO controls) ([3]; monohydrochloride): 100.50% and 101.26%; % Enzyme Activity (relative to DMSO controls) ([4]; monohydrochloride): 88.20% and 82.84%; % Enzyme Activity (relative to DMSO controls) ([6]; monohydrochloride): 90.66% and 90.30%
																				CCc1ccc(CCOc2ccc(CC3SC(=O)NC3=O)cc2)nc1 (stereo not shown) [Pioglitazone, 5-[[4-[2-(5-ethyl-2-pyridinyl)ethoxy]phenyl]methyl]-2,4-thiazolidinedione]	% Enzyme Activity (relative to DMSO controls) [2]: 18.95% and 18.46%; inhibition of PRMT5 [2]: mild inhibitor; activation of PPARα [8]: low level activation; % Enzyme Activity (relative to DMSO controls) [3]: 110.44% and 99.23%; % Enzyme Activity (relative to DMSO controls) [4]: 43.68% and 45.13%; % Enzyme Activity (relative to DMSO controls) [6]: 93.46% and 102.78%
																				CN(CCOc1ccc(CC2SC(=O)NC2=O)cc1)c1ccccn1 (stereo not shown) [Rosiglitazone, 5-[[4-[2-(methyl-2-pyridinylamino)ethoxy]phenyl]methyl]-2,4-thiazolidinedione]	inhibition of PRMT5 [2]: no effect
																				Cc1onc(-c2ccccc2Cl)c1C(=O)N(C)c1ccc(Cl)cc1 [TGR5 agonist, 3-(2-chlorophenyl)-N-(4-chlorophenyl)-N,5-dimethyl-4-isoxazolecarboxamide]	% Enzyme Activity (relative to DMSO controls) [2]: 84.41% and 87.02%; % Enzyme Activity (relative to DMSO controls) [3]: 100.02% and 92.67%; % Enzyme Activity (relative to DMSO controls) [4]: 90.97% and 82.32%; pEC50, activator of TGR5 [9]: 6.8-7.5; % Enzyme Activity (relative to DMSO controls) [6]: 70.12% and 73.79%

SMILES	% Activity ([4]; Conc. 1.00E−04 M)	Raw data ([4]; Conc. 1.00E−04 M)	% Activity ([4]; Conc. 1.11E−05 M)	Raw data ([4]; Conc. 1.11E−05 M)	% Activity ([4]; Conc. 1.23E−06 M)	Raw data ([4]; Conc. 1.23E−06 M)	% Activity ([4]; Conc. 1.37E−07 M)	Raw data ([4]; Conc. 1.37E−07 M)	% Activity ([4]; Conc. 1.52E−08 M)	Raw data ([4]; Conc. 1.52E−08 M)	% Activity ([4]; Conc. 3.33E−05 M)	Raw data ([4]; Conc. 3.33E−05 M)	% Activity ([4]; Conc. 3.70E−06 M)	Raw data ([4]; Conc. 3.70E−06 M)	% Activity ([4]; Conc. 4.12E−07 M)	Raw data ([4]; Conc. 4.12E−07 M)	% Activity ([4]; Conc. 4.57E−08 M)	Raw data ([4]; Conc. 4.57E−08 M)	% Activity ([4]; Conc. 5.08E−09 M)	Raw data ([4]; Conc. 5.08E−09 M)	further results
Nc1ncnc2c1ncn2[C@@H]1O[C@H](CSCC[C@H](N)C(=O)O)[C@@H](O)[C@H]1O [SAH, S-(5′-Adenosyl)-L-homocysteine]	5.40%	23637	23.32%	102087	61.44%	268933	87.83%	384445	90.12%	394475	11.73%	51347	42.02%	183946	72.99%	319517	96.88%	424069	91.72%	401476	HILLSLOPE [4]: −0.78; IC50 [6]: 0.623 µM
